Drawing on US20080280868A1, “Pyridine Derivatives and Their Use as Cb2 Receptor Modulators” (priority 2004, published 2008), this text covers EC50 and Emax for 17 molecules.

SMILES strings stand for the structures. pEC50: −log10 of the molar value. Counter-ions that a name gives are not always drawn. Like-named read-outs stand apart in the source and are kept apart here.

The experiment has as its target T1, human cannabinoid CB2 receptor (Homo sapiens, UniProt P34972).
T1 construct: expressed in transfected cells; host or cells: Saccharomyces cerevisiae strain MMY23 (cassette integrated at the ura3 locus, GPD promoter)
The experiment can be described thus: Cannabinoid CB2 receptor agonist activity in yeast cells (FDGlu fluorescence). The experiment is classed as cell-based. To be noted: for Emax: read-out: efficacy value (Emax) at the cloned human cannabinoid CB2 receptor. The protocol:
The cannabinoid CB2 receptor agonist activity of the compounds of formula (I) was determined in accordance with the following experimental method.
Yeast (Saccharomyces cerevisiae) cells expressing the human cannabinoid CB2 receptor were generated by integration of an expression cassette into the ura3 chromosomal locus of yeast strain MMY23. This cassette consisted of DNA sequence encoding the human CB2 receptor flanked by the yeast GPD promoter to the 5′ end of CB2 and a yeast transcriptional terminator sequence to the 3′ end of CB2. MMY23 expresses a yeast/mammalian chimeric G-protein alpha subunit in which the C-terminal 5 amino acids of Gpal are replaced with the C-terminal 5 amino acids of human Gαi3 (as described in Brown et al. (2000), Yeast 16:11-22).
Agonists were prepared as 10 mM stocks in DMSO. […] Agonist solutions in DMSO (1% final assay volume) were transferred into black, clear bottom, microtitre plates from NUNC (96- or 384-well). Cells were suspended at a density of 0.2 OD600/ml in SC media lacking histidine, uracil, tryptophan, adenine and leucine and supplemented with 10 mM 3-aminotriazole, 0.1M sodium phosphate pH 7.0, and […] fluorescein di-β-D-glucopyranoside (FDGlu). […] After incubation at 30° C. for 24 hours, fluorescence resulting from degradation of FDGlu to fluorescein due to exoglucanase, an endogenous yeast enzyme produced during agonist-stimulated cell growth, was determined using a Spectrofluor microtitre plate reader (Tecan; excitation wavelength: 485 nm; emission wavelength: 535 nm). Fluorescence was plotted against compound concentration and iteratively curve fitted using a four parameter fit to generate a concentration effect value. Efficacy (Emax) was calculated from the equation
Equieffective molar ratio (EMR) values were calculated from the equation

The mark [1] stands for this setting: yeast (Saccharomyces cerevisiae) expressing human CB2, agonist, 30° C. for 24 hours, read-out: EC50 at the cloned human cannabinoid CB2 receptor.
Setting [2] is: Emax relative to HU210, yeast expressing human CB2.

T1 sequence (P34972 whole entry): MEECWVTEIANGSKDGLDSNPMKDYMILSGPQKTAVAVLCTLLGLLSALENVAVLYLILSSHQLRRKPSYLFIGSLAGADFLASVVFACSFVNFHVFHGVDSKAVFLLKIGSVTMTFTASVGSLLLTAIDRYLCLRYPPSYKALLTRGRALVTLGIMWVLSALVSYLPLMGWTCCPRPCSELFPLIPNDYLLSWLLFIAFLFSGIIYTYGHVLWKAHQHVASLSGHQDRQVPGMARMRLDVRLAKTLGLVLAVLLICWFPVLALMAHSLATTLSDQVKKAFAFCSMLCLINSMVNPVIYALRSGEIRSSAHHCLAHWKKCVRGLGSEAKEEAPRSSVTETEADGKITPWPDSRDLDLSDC

As for `CC(C)CNCc1cnc(Nc2ccc(Cl)cc2Cl)cc1C(C)C` [Example 23, (2,4-Dichloro-phenyl)-[5-(isobutylamino-methyl)-4-isopropyl-pyridin-2-yl]-amine, compound withformic acid (1:1)], the pEC50 (usually the negative decadic logarithm of the EC50, by convention in mol/L) was more than 6.52 and the maximum response (Emax) (commonly the greatest response seen or fitted, relative to the assay's reference) was more than 50%.

Regarding `Cc1cccc(Nc2cc(C(C)C)c(CNCC3CCC3)cn2)c1` [Example 12, {5-[(Cyclobutylmethyl-amino)methyl]-4-isopropyl-pyridin-2-yl}-m-tolyl-amine], the negative-log EC50 (pEC50) was 6.00 to 6.52 and the maximal response (Emax) is more than 50%.

On to `CC(C)c1cc(Nc2ccc(F)c(Cl)c2)ncc1CNCC1CC1` [Example 34, (3-Chloro-4-fluoro-phenyl)-{5-[(cyclopropylmethyl-amino)-methyl]-4-isopropyl-pyridin-2-yl}-amine, compound with formic acid(1:1)], for which the Emax is more than 50%. Under setting [1], the pEC50 was 6.00 to 6.52.

For `O=S1(=O)CCC(NCc2cnc(Nc3cccc(Cl)c3)cc2C2CC2)CC1` [Example 63, (3-Chloro-phenyl)-{4-cyclopropyl-5-[(1,1-dioxo-hexahydro-1l^6-thiopyran-4-ylamino)-methyl]-pyridin-2-yl}-amine di-hydrochloride], the pEC50 was more than 6.52 and the maximal response (Emax) was more than 50%.

For the molecule `Clc1cccc(Nc2cc(C3CC3)c(CNC3CCC3)cn2)c1` [Example 1, (3-Chlorophenyl)-5-(cyclobutylaminomethyW cyclopropyl-pyridin-2-yl)-amine acetate], the Emax under setting [2] was more than 50%. Besides, the negative-log EC50 (pEC50) under setting [1] is more than 6.52.

Consider `CC(C)CNCc1cnc(Nc2cccc(C(F)(F)F)c2)cc1C(C)C` [Example 51, [5-(Isobutylamino-methyl)-4-isopropyl-pyridin-2-yl]-(3-trifluoromethyl-phenyl)-amine,compound with formic acid (1:1,25)], for which the Emax under setting [2] is more than 50%. In addition, the pEC50 under setting [1] is more than 6.52.

In the case of `CC(C)c1cc(Nc2ccc(F)c(Cl)c2)ncc1CNCC1CCC1` [Example 18, (3-Chloro-4-fluoro-phenyl)-{5-[(cyclobutyhnethyl-amino)-methyl]-4-isopropyl-pyridin-2-yl}-amine,compound with formic acid (1:1.3)], under setting [2], the Emax is more than 50%. Under setting [1], the negative-log EC50 (pEC50) was more than 6.52.

Consider `CC(C)c1cc(Nc2cc(F)cc(F)c2)ncc1CNCC1CC1` [Example 31, {5-[(Cyclopropylmethyl-amino)-methyl]-4-isopropyl-pyridin-2-yl}-(3,5-difluoro-phenyl)-amine,compound with formic acid (1:1)], for which the maximal response (Emax) is more than 50%. Besides, the pEC50 under setting [1] is 6.00 to 6.52.

Regarding `CC(C)c1cc(Nc2cccc(C(F)(F)F)c2F)ncc1C(C)NCC1CCC1` (stereo not drawn) [Example 56, {[1-Cyclobutylmethyl-amino)ethyl]-4-isopropyl-pyridin-2-yl}-(2-fluoro-3-trifluoromethyl-phenyl)-amine dihydrochloride], the negative logarithm of the EC50 (pEC50) is more than 6.52 and the Emax is more than 50%.

Turning to `Clc1cccc(Nc2cc(C3CC3)c(CNCC3CCCC3)cn2)c1` [Example 62, (3-Chloro-phenyl)-{5-[(cyclopentylmethyl-amino)-methyl]-4-cyclopropyl-pyridin-2-yl}-amine di-Hydrochloride], the pEC50 was more than 6.52 and the maximal response (Emax) was more than 50%.

As for `CC(C)c1cc(Nc2cccc(Cl)c2)ncc1CN1CCSCC1` [Example 60, (3-Chloro-phenyl)-(4-isopropyl-5-thiomorpholin-4-ylmethyl-pyridin-2-yl)-amine. dihydrochloride], the pEC50 was more than 6.52 and the maximal effect (Emax) was more than 50%.

As to `CCCNCc1cnc(Nc2cccc(Cl)c2)cc1C1CC1` [Example 55, (3-Chloro-phenyl)-(4-cyclopropyl-5-propylaminomethyl-pyridin-2-yl) amine dihydrochloride], the pEC50 was more than 6.52 and the maximum response (Emax) is more than 50%.

Take `CC(C)c1cc(N(C)c2cccc(Br)c2)ncc1CNCC1CCOCC1` [Example 49, (3-Bromo-phenyl)-(4-isopropyl-5-{[(tetrahydro-pyran-4-ylmethyl)-amino]-methyl}-pyridin-2-yl)-methyl-amine, compound withformic acid (1:1)]: the Emax under setting [2] is more than 50%. In addition, the negative-log EC50 (pEC50) under setting [1] is more than 6.52.

As to `CC(C)c1cc(Nc2cccc(Cl)c2)ncc1CN1CCC1` [Example 59, (5-Azetidin-1-ylmethyl-4-isopropyl-pyridin-2-yl)-(3-chloro-phenyl)-amine.dihydrochloride], the negative logarithm of the EC50 (pEC50) under setting [1] is more than 6.52.

On to `CC(C)c1cc(Nc2ccc(Cl)c(Cl)c2)ncc1CNCC1CCC1` [Example 17, {5-[(Cyclobutylmethyl-amino)-methyl]-4-isopropyl-pyridin-2-yl}-(3,4-dichloro-phenyl)-amine,compound with formic acid (1:1.2)], for which the pEC50 is more than 6.52 and the Emax was more than 50%.

As to `CC(C)c1cc(Nc2cc(Cl)ccc2Cl)ncc1CNCC1CCC1` [Example 20, {5-[(Cyclobutylmethyl-amino)-methyl]-4-isopropyl-pyridin-2-yl}-(2,5-dichloro-phenyl)-amine,compound with formic acid (1:1)], the negative-log EC50 (pEC50) is more than 6.52 and the Emax was more than 50%.

For `Fc1ccc(Nc2cc(C3CC3)c(CNCC3CCCC3)cn2)cc1Cl` [Example 44, (3-Chloro-4-fluoro-phenyl)-{5-[(cyclopentylmethyl-amino)-methyl]-4-cyclopropyl-pyridin-2-yl}-amine, compound with formicacid (1:1.4)], under setting [2], the Emax is more than 50%. The pEC50 under setting [1] is more than 6.52.
